{"source": "patent US12281084B2", "about": "“Acetyl-CoA synthetase 2 (ACSS2) inhibitors and methods using same” (The Wistar Institute, priority 2019, dated 2025)", "test_system": "BT474 tumors", "assay": "In vivo 13C2-acetate tracing in BT474 tumors", "design": "species or system mouse", "procedure": "All metabolomic experiments were performed in serum-like modified Eagle's medium (SMEM). SMEM contains 54 different nutrients that are found in the bloodstream at concentrations that are physiologically relevant to humans. SMEM was supplemented with 10% or 1% fetal bovine serum (FBS; Life Technologies). Cells were grown in normoxia (atmospheric oxygen) or hypoxia (1% oxygen) while being incubated in uniformly labeled ^13C2-acetate (0.100 mM; Cambridge Isotope Laboratories). Lengths of incubation are described in the figure legends. For extraction of metabolites from cultured cells, SMEM medium was aspirated and cells were washed once in ice-cold PBS. Metabolites were extracted by adding a solution of LC-MS grade methanol/acetonitrile/water (5:3:2) to the well. Plates were incubated at 4° C. for 5 minutes on a rocker and then the extraction solution was collected. The metabolite extract was cleared by centrifugation at 15,000×g for 10 minutes at 4° C. Supernatants were transferred to LC-MS silanized glass vials with PTFE caps and either run immediately on the LC-MS or stored at −80° C. […]\nLC-MS analysis was performed on a Q Exactive Hybrid Quadrupole-Orbitrap HF-X MS (ThermoFisher Scientific) equipped with a HESI II probe and coupled to a Vanquish Horizon UHPLC system (ThermoFisher Scientific). […] Samples were analyzed in full MS scan with polarity switching at scan range 65 to 975 m/z; 120,000 resolution; automated gain control (AGC) target of 1E6; and maximum injection time (max IT) of 100 milliseconds. Identification and quantitation of metabolites was performed using an annotated compound library and TraceFinder 4.1 software. […]\nOn-target activity of VY-3-135 in the tumor was probed. […] Tumor lipid extracts were saponified and the resulting fatty acids were analyzed by LC-MS. Likewise, polar metabolites were extracted from matching tumor samples and analyzed by LC-MS. […] Isotopologs ≥M+10 were not detected in tumors from VY-3-135 treated mice."}
{"smiles": "CCn1c(C(O)(c2ccccc2)c2ccccc2)nc2ccc(C(=O)NC[C@@H](C)O)cc21", "note": "[VY-3-135, (R)-1-ethyl-2-(hydroxydiphenylmethyl)-N-(2-hydroxypropyl)-1H-benzo[d]imidazole-6-carboxamide]", "values": [{"measurement": "13C2-acetate labeling of citrate in tumors", "setting": "BT474 tumors (FIG. 6D)", "result": "no effect was observed"}, {"measurement": "palmitate isotopologs ≥M+10 in tumors", "setting": "BT474 tumors from treated mice", "result": "not detected"}, {"measurement": "13C labeling of palmitate in tumors", "setting": "BT474 tumors, 13C2-acetate in drinking water 48 hours (FIG. 6C)", "result": "caused a significant decrease in the ^13C labeling of palmitate"}]}
